Test results published in patent US7879795B2, “Enhancement of tigecycline potency using efflux pump inhibitors” (Mpex Pharmaceuticals, Inc., priority 2004, dated 2011).

Columns and labels:
[1] = test system: strain PAM1723 of P. aeruginosa; type: in vitro ADME; settings: in words
Experimental: Stability of compounds was also evaluated using a bioassay. The test compound at 320 μg/ml was treated with rabbit kidney supernatant for 0, 0.5, 1 and 2 hours.

[2] = test system: PAM 1738, MexCD-OprJ over-expressed, ΔMexAB-OprM ΔMexEF-OprN; experiment: microbe, parasite or virus in culture; type: cell-based, P. aeruginosa; design: Tigecycline MIC in the presence of Compound 21: unit not given here; settings: PAM 1738
Experimental: (§1) The ability of compound 21 to increase susceptibility to tigecycline was also assessed. The tigecycline potentiating activity of compound 21 was assessed by the checkerboard assay (Antimicrobial Combinations, Antibiotics in Laboratory Medicine, ed. Victor Lorian, M.D., Fourth edition, 1996, pp 333-338, which is incorporated herein by reference in its entirety) using a broth micro-dilution method performed as recommended by the CSLI (Clinical and Laboratory Standards Institute, formerly NCCLS) guidelines (National Committee for Clinical Laboratory Standards 2003. Methods for Dilution Antimicrobial Susceptibility Tests for Bacteria That Grow Aerobically—Sixth Edition; Approved Standard. NCCLS Document M7-A6, Vol 20 No. 2). In this assay, multiple dilutions of the two drugs, compound 21 and tigecycline, were tested alone and in combination, at concentrations equal to, above and below their respective minimal inhibitory concentrations (MICs). […] The stock solution was further diluted in Mueller Hinton Broth (MHB). Stock solutions were stored at −80° C.
(§2) The checkerboard assay was performed in microtiter plates. Tigecycline was diluted in the x axis, each column containing a single concentration of tigecycline. Compound 21 was diluted in the y axis, each row containing an equal concentration of the EPI. […] The assay was performed in MHB with a final bacterial inoculum of 5×10^5 CFU/ml (from an early-log phase culture). The microtiter plates were incubated for 20 hours at 35° C. and then read using a microtiter plate reader (Molecular Devices) at 650 nm, as well as by visual observation using a microtiter plate-reading mirror.

[3] = Solubility in water (stock solutions); settings: stock solutions 10 mg/ml
Citrobacter freundii 13 = experiment: Antibiotic MIC with fixed concentration of compound 21, Citrobacter freundii 13; type: cell-based
Experimental: (§3) To further characterize the clinical potential of tigecycline/EPI combinations, the microbiological activity of tigecycline in combination with compound 21 was investigated using clinical isolates of P. aeruginosa and other gram-negative bacteria. In several experiments, described below, the impact of a fixed concentration of compound 21 (2.5 μg/ml) on susceptibility to tigecycline was determined.
(§4) The impact of compound 21 on the activity of tigecycline against representative members of Enterobacteriacaea was also tested.

[4] = test system: PAM 1626, Four pumps non-functional; experiment: Tigecycline potentiation checkerboard assay, PAM 1626; type: cell-based, P. aeruginosa; design: Tigecycline MIC in the presence of Compound 21: unit not given here; settings: PAM 1626
Experimental: as §1, §2

Klebsiella pneumonia 79 = experiment: Antibiotic MIC with fixed concentration of compound 21, Klebsiella pneumonia 79; type: cell-based
Experimental: as §3, §4

[5] = test system: P. aeruginosa strain PAM 1032; experiment: Mouse model of P. aeruginosa sepsis infection (tigecycline 50% effective dose); type: in vivo
Experimental: Tigecycline and compound 21 were prepared in sterile 0.9% saline. Seventy Swiss-Webster mice (Harlan laboratories) with body weights ranging from 22 to 25 grams at the start of the study were used. Upon receipt, the animals were housed 5 per cage in a room with a controlled environment and were acclimated to laboratory conditions for at least 24 hours prior to the start of dosing. Animals were provided food and water ad libitum. The health status of the animals was determined during the acclimation period and unhealthy animals were not placed on study. Each animal was identified by marking their tails with indelible ink and each cage was identified by animal, group, and study number.
P. aeruginosa strain PAM 1032 was grown in Mueller-Hinton Broth (MHB) at 35° C. under constant aeration. After 20 hours, the inoculum was sub-cultured into fresh MHB and allowed to regrow at 35° C., under constant aeration, for 4 hours. The inoculum was adjusted to ca. 4×10^7 CFU/ml by correlation of absorbance at 600 nm with predetermined plate counts. The inoculum was then diluted 2-fold in 14% hog-gastric mucin (Sigma, St. Louis, Mo.) for a final inoculum concentration of 2×10^7 CFU/ml. […] At 0 and 2 hours following infection, tigecycline was administered by the subcutaneous route and compound 21 was administered by the intraperitoneal route. […] The susceptibility of the test strain (P. aeruginosa PAM1032, […] MexAB-OprM) to tigecycline was 4 ug/ml, the susceptibility of the test strain to tigecycline in the presence of 2.5 μg/mL of compound 21 was 0.25 μg/mL.

[6] = test system: laboratory strains of P. aeruginosa; experiment: Tigecycline susceptibility of laboratory strains of P. aeruginosa over-expressing or lacking efflux pumps; type: cell-based
Experimental: as §1, §2

[7] = test system: Klebsiella pneumonia, Proteus mirabilis, Morganella morganii, P. aeruginosa strains; experiment: Tigecycline susceptibility of various bacterial strains in combination with compound 21 (Example 85); type: cell-based; settings: Example 85, written in present tense
Experimental: Standard CLSI methods for antimicrobial susceptibility testing, as outlined in National Committee for Clinical Laboratory Standards 2003, Methods for Dilution Antimicrobial Susceptibility Tests for Bacteria That Grow Aerobically—-6th ed., Approved Standard, NCCLS Document M7-A6, Vol 20 No. 2., are used to assess the activity of tigecycline in combination with compound 21. The following strains are tested: • Klebsiella pneumonia: G340, G595, G815, GC7335, GC7736, GC7737, tigecycline resistant mutants derived from G595 and G815 • Proteus mirabilis: G151, GC 7020, GC 6899, GC 6900, GC 7018, GC 7019 • Morganella morganii: G858, G1492, GC7676, GC7677, GC7743, GC7744 • P. aeruginosa: K767, K1523, K1525, XY1, XY3, K153, BXY1, BXY4, K1119, M1, M9, K1455.
Clinical isolates enriched with strains having a decreased susceptibility to tigecycline are also tested.

Klebsiella pneumonia 73 = experiment: Antibiotic MIC with fixed concentration of compound 21, Klebsiella pneumonia 73; type: cell-based
Experimental: as §3, §4

[8] = azithromycin MIC with compound 21
[9] = levofloxacin MIC with compound 21 at […]
[10] = tigecycline MIC with compound 21 at […]

NCCC[C@H](N)C(=O)N[C@H](CCc1ccccc1)C(=O)Nc1cnc2ccccc2c1 [Compound 3, 2-(S),5-Diamino-pentanoic acid [3-phenyl-1-(R)-(quinolin-3-ylcarbamoyl)-propyl]-amide]
change of EPI activity after treatment with supernatant of rabbit kidney homogenate [1]: time-dependent reduction of the EPI activity

NCCC[C@H](N)C(=O)N[C@H](Cc1ccc(C(F)(F)F)cc1)C(=O)Nc1cnc2ccccc2c1 [Compound 21, 2-(S),5-Diamino-pentanoic acid [1-(R)-(quinolin-3-ylcarbamoyl)-2-(4-trifluoromethyl-phenyl)-ethyl]amide]
Tigecycline MIC in the presence of Compound 21 ([2]; Compound 21 0.625 μg/ml): 1 | Tigecycline MIC in the presence of Compound 21 ([2]; Compound 21 1.25 μg/ml): 0.5 | Tigecycline MIC in the presence of Compound 21 ([2]; Compound 21 5 μg/ml): 0.25 | Tigecycline MIC in the presence of Compound 21 ([2]; Compound 21 10 μg/ml): 0.25 | Tigecycline MIC in the presence of Compound 21 ([2]; Compound 21 20 μg/ml): 0.25 | Tigecycline MIC in the presence of Compound 21 ([2]; Compound 21 40 μg/ml): 0.25 | Tigecycline MIC in the presence of Compound 21 ([2]; Compound 21 […]): 0.25 | solubility in water [3]: readily soluble in water | Azi + EPI (MIC) (Citrobacter freundii 13; [8]): ≦0.125 | Levo + EPI at […] (MIC) (Citrobacter freundii 13; [9]): 8 | Tig + EPI at […] (MIC) (Citrobacter freundii 13; [10]): 0.125 | Tigecycline MIC in the presence of Compound 21 ([4]; Compound 21 0.625 μg/ml): 0.25 | Tigecycline MIC in the presence of Compound 21 ([4]; Compound 21 1.25 μg/ml): 0.25 | Tigecycline MIC in the presence of Compound 21 ([4]; Compound 21 5 μg/ml): 0.25 | Tigecycline MIC in the presence of Compound 21 ([4]; Compound 21 10 μg/ml): 0.25 | Tigecycline MIC in the presence of Compound 21 ([4]; Compound 21 20 μg/ml): 0.5 | Tigecycline MIC in the presence of Compound 21 ([4]; Compound 21 […]): 0.25 | Azi + EPI (MIC) (Klebsiella pneumonia 79; [8]): 0.25 | Levo + EPI at […] (MIC) (Klebsiella pneumonia 79; [9]): 4 | Tig + EPI at […] (MIC) (Klebsiella pneumonia 79; [10]): 0.25 | 50% effective dose of tigecycline in combination with compound 21 ([5]; mice, tigecycline SC, compound 21 IP at 0 and 2 hours): approximately 75 mg/k | improvement of tigecycline 50% effective dose ([5]; with compound 21): 2.5 fold | effect on activity of tigecycline against strains expressing efflux pumps ([6]; in words): increases activity to tigecycline | concentration required to completely inhibit the efflux pumps ([6]; tigecycline checkerboard): 2.5 µg/mL | effect on development of resistance to tigecycline [7]: reduces the development of resistance | effect on resistance to tigecycline in bacterial strains [7]: decreases resistance to tigecycline | effect on susceptibility of the strains to tigecycline [7]: increases the susceptibility of the strains to tigecycline | Azi + EPI (MIC) (Klebsiella pneumonia 73; [8]): ≦0.125 | Levo + EPI at […] (MIC) (Klebsiella pneumonia 73; [9]): 4 | Tig + EPI at […] (MIC) (Klebsiella pneumonia 73; [10]): 0.125
